Reference: patent US11725036B2, “Modified lipidated relaxin B chain peptides and their therapeutic use” (Sanofi, priority 2018, dated 2023)
Starred links: 1 amine or outer side, 2 acyl side, 3 side chain; linkers in the order of their positions; H or OH if unused. Non-standard residues stand in square brackets, D forms with d. Residues, ends and D or L forms follow the SMILES beside them. Groups on a side chain read outwards from the residue. *: point of attachment. X13 = CCCCCCCCCCCCCCCC(=O)N[C@@H](CCC(=O)N[C@@H](CCC(=O)N[C@@H](CCC(=O)N[C@@H](CCC(=O)NCCCOCCOCCOCCCNC(=O)CCC(=O)NCCCOCCOCCOCCCNC(=O)CCC(=O)NCCCOCCOCCOCCCN*)C(=O)O)C(=O)O)C(=O)O)C(=O)O; X3 = CCCCCCCCCCCCCCCCCC(=O)N[C@@H](CCC(=O)N[C@@H](CCC(=O)N[C@@H](CCC(=O)NCCCOCCOCCOCCCNC(=O)CCC(=O)NCCCOCCOCCOCCCNC(=O)CCC(=O)NCCCOCCOCCOCCCN*)C(=O)O)C(=O)O)C(=O)O; X1 = CCCCCCCCCCCCCCCC(=O)N[C@@H](CCC(=O)N[C@@H](CCC(=O)N[C@@H](CCC(=O)NCCCOCCOCCOCCCNC(=O)CCC(=O)NCCCOCCOCCOCCCNC(=O)CCC(=O)NCCCOCCOCCOCCCN*)C(=O)O)C(=O)O)C(=O)O; γGlu = O=C(O)[C@H](CCC(=O)[*:2])N[*:1]; Palmitoyl = CCCCCCCCCCCCCCCC(=O)*; Cit = NC(=O)NCCC[C@H](N)C(=O)O; Suc = O=C(CCC(=O)[*:2])[*:1]; αMeK = C[C@](N)(CCCCN)C(=O)O; AEEA = NCCOCCOCC(=O)O; Aib = CC(C)(N)C(=O)O

Biological target: T1, RXFP1 (Homo sapiens, UniProt Q9HBX9)
T1 construct: OVCAR5 cells expressing endogenous RXFP1; endogenous in cells; host or cells: OVCAR5
T1 sequence (Q9HBX9 1-757): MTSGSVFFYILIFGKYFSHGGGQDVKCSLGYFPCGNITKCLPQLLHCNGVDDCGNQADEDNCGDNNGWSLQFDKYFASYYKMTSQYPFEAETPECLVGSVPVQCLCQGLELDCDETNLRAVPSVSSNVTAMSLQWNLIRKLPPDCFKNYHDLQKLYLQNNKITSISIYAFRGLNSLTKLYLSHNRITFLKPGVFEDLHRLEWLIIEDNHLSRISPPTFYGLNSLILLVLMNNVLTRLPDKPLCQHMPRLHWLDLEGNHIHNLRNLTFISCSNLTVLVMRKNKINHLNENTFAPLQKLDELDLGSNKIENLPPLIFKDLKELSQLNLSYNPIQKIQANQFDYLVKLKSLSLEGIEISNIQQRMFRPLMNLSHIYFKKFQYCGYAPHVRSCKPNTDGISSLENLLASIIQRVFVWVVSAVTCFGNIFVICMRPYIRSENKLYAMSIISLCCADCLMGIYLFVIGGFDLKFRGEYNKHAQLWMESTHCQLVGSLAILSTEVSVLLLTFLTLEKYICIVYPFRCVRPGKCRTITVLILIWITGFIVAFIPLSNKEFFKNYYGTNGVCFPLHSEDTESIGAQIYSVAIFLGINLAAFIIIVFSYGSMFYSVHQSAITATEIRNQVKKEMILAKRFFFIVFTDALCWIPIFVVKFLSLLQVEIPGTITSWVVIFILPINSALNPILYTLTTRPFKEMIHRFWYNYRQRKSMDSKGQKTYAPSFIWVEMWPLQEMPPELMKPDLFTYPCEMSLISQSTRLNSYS
Assay: OVCAR5 cAMP assay (HTRF)
Type: cell-based
Conditions: for EC50: OVCAR 5 cells expressing endogenous RXFP1, cAMP readout; for Emax: OVCAR 5 cells, maximal cAMP relative to H2-relaxin
Description: OVCAR5 cells expressing endogenous RXFP1 were used to test RXP1 agonist properties of peptides of the invention, and in particular of the peptides of sequence SEQ ID NO: 1-97.
Since RXFP1 is a Gs coupled GPCR, cAMP was used as readout of RXFP1 activation.
Isobutyl Methyl Xanthine (IBMX) was used to inhibit phosphodiesterase activity facilitating cAMP measurements. HTRF (Homogenous Time Resolved Fluorescence) technology was used to detect cAMP due to its great sensitivity.
In summary, OVCAR5 were grown in regular medium (RPMI) containing 10% fetal calf serum (FCS) and 1% antibiotics (penicillin/streptomycin).
Before the experiments, cells were detached with accutase and incubated for 40 minutes at 37° C. with 1 mM (3-isobutyl-1-methylxanthine) IBMX.
Cells were then distributed in 384 black well plates containing increasing concentrations of the different peptides in a fix volume of medium (without FCS).
After an incubation of 30 min at 37° C. in an humid incubator in 5% CO2, the reaction was stopped by adding a fixed volume of a solution containing a lysis buffer and cAMP-D2 (cAMP labeled with the dye d2) and the anti cAMP antibody linked to Europium and used for cAMP detection.
Readout of the experiment were performed on a fluorimeter allowing HTRF measurement. Activation curves were generated by plotting the intracellular value of cAMP versus log 10 of the compound concentration.
The 50% activation concentration (EC50) was calculated by nonlinear regression using the sigmoidal dose-response (variable slope) equation with Prism 5 software.
Emax % was determined as the maximal intracellular value of cAMP for test compound (upper limit of cAMP vs concentration curve) divided by the maximal intracellular value of cAMP for H2-relaxin determined in the same test occasion multiplied by 100. Emax %=100×[cAMPtest cpd]/[cAMPH2-Rlx]

Structure (SMILES)	EC50	Emax
CCCCCCCCCCCCCCCCCC(=O)N[C@@H](CCC(=O)N[C@@H](CCC(=O)N[C@@H](CCC(=O)NCCCOCCOCCOCCCNC(=O)CCC(=O)NCCCOCCOCCOCCCNC(=O)CCC(=O)NCCCOCCOCCOCCCNC(=O)CCC(=O)NCCCC[C@H](NC(=O)CNC(=O)[C@H](CCC(=O)O)NC(=O)C(C)(C)NC(=O)C(C)(C)NC(=O)[C@@H](NC(=O)[C@H](CCCNC(N)=O)NC(=O)[C@H](C)NC(=O)[C@H](CCCNC(=N)N)NC(=O)[C@@H](NC(=O)[C@H](CCCCN)NC(=O)[C@H](CCC(=O)O)NC(=O)[C@H](CCCNC(=N)N)NC(=O)CNC(=O)[C@H](CCC(=O)O)NC(=O)[C@H](CC(C)C)NC(C)=O)C(C)C)[C@@H](C)CC)C(=O)N[C@@H](CO)C(=O)N[C@H](C(=O)N[C@@H](Cc1ccccc1)C(=O)N[C@@H](CO)C(=O)N[C@@](C)(CCCCN)C(=O)N[C@@H](CCCNC(=N)N)C(=O)N[C@@H](C)C(=O)N[C@@H](CCCCNC(C)=O)C(N)=O)[C@@H](C)O)C(=O)O)C(=O)O)C(=O)O [compound 56] (Ac-LEGREKVRA[Cit]I[Aib][Aib]EGK([Suc-X3])STFS[αMeK]RAK(Ac)-NH2)	0.15 nM	91%
CCCCCCCCCCCCCCCC(=O)N[C@@H](CCC(=O)N[C@@H](CCC(=O)N[C@@H](CCC(=O)N[C@@H](CCC(=O)NCCCOCCOCCOCCCNC(=O)CCC(=O)NCCCOCCOCCOCCCNC(=O)CCC(=O)NCCCOCCOCCOCCCNC(=O)CCC(=O)NCCCC[C@H](NC(=O)CNC(=O)[C@H](CCC(=O)O)NC(=O)C(C)(C)NC(=O)C(C)(C)NC(=O)[C@@H](NC(=O)[C@H](CCCCNC(C)=O)NC(=O)[C@H](C)NC(=O)[C@H](CCCNC(=N)N)NC(=O)[C@@H](NC(=O)[C@H](CCCCN)NC(=O)[C@H](CCC(=O)O)NC(=O)[C@H](CCCNC(=N)N)NC(=O)CNC(=O)[C@H](CCC(=O)O)NC(=O)[C@H](CC(C)C)NC(C)=O)C(C)C)[C@@H](C)CC)C(=O)N[C@@H](CO)C(=O)N[C@H](C(=O)N[C@@H](Cc1c[nH]c2ccccc12)C(=O)N[C@@H](CO)C(=O)NC(C)(C)C(=O)N[C@@H](CCCNC(=N)N)C(=O)N[C@@H](CCCCN)C(=O)N[C@@H](CCCCNC(C)=O)C(N)=O)[C@@H](C)O)C(=O)O)C(=O)O)C(=O)O)C(=O)O [compound 62] (Ac-LEGREKVRAK(Ac)I[Aib][Aib]EGK([Suc-X13])STWS[Aib]RKK(Ac)-NH2)	0.6 nM	98%
CCCCCCCCCCCCCCCC(=O)N[C@@H](CCC(=O)N[C@@H](CCC(=O)N[C@@H](CCC(=O)NCCOCCOCC(=O)NCCOCCOCC(=O)NCCOCCOCC(=O)NCCOCCOCC(=O)NCCCC[C@H](NC(=O)CNC(=O)[C@H](CCC(=O)O)NC(=O)C(C)(C)NC(=O)C(C)(C)NC(=O)[C@@H](NC(=O)[C@H](CCCCNC(C)=O)NC(=O)[C@H](C)NC(=O)[C@H](CCCNC(=N)N)NC(=O)[C@@H](NC(=O)[C@H](CCCCN)NC(=O)[C@H](CCC(=O)O)NC(=O)[C@H](CCCNC(=N)N)NC(=O)CNC(=O)[C@H](CCC(=O)O)NC(=O)[C@H](CC(C)C)NC(C)=O)C(C)C)[C@@H](C)CC)C(=O)N[C@@H](CO)C(=O)N[C@H](C(=O)N[C@@H](Cc1ccccc1)C(=O)N[C@@H](CO)C(=O)N[C@@](C)(CCCCN)C(=O)N[C@@H](CCCNC(=N)N)C(=O)N[C@@H](C)C(=O)N[C@@H](CCCCNC(C)=O)C(N)=O)[C@@H](C)O)C(=O)O)C(=O)O)C(=O)O [compound 8] (Ac-LEGREKVRAK(Ac)I[Aib][Aib]EGK([AEEA-AEEA-AEEA-AEEA-γGlu-γGlu-γGlu-Palmitoyl])STFS[αMeK]RAK(Ac)-NH2)	1.86 nM	92%
CCCCCCCCCCCCCCCC(=O)N[C@@H](CCC(=O)N[C@@H](CCC(=O)N[C@@H](CCC(=O)NCCCOCCOCCOCCCNC(=O)CCC(=O)NCCCOCCOCCOCCCNC(=O)CCC(=O)NCCCOCCOCCOCCCNC(=O)CCC(=O)NCCCC[C@H](NC(=O)CNC(=O)[C@H](CCC(=O)O)NC(=O)C(C)(C)NC(=O)C(C)(C)NC(=O)[C@@H](NC(=O)[C@H](CCCCNC(C)=O)NC(=O)[C@H](C)NC(=O)[C@H](CCCNC(=N)N)NC(=O)[C@@H](NC(=O)[C@H](CCCCN)NC(=O)[C@H](CCC(=O)O)NC(=O)[C@H](CCCNC(=N)N)NC(=O)CNC(=O)[C@H](CCC(=O)O)NC(=O)[C@H](CC(C)C)NC(C)=O)C(C)C)[C@@H](C)CC)C(=O)N[C@@H](CO)C(=O)N[C@H](C(=O)N[C@@H](Cc1c[nH]c2ccccc12)C(=O)NC(C)(C)C(=O)N[C@@H](CCCCN)C(=O)N[C@@H](CCCNC(=N)N)C(=O)N[C@@H](C)C(=O)N[C@@H](CCCCNC(C)=O)C(N)=O)[C@@H](C)O)C(=O)O)C(=O)O)C(=O)O [compound 35] (Ac-LEGREKVRAK(Ac)I[Aib][Aib]EGK([Suc-X1])STW[Aib]KRAK(Ac)-NH2)	2.33 nM	91%
